Measurements taken from patent publication US20240239806A1, “COMPOUNDS, COMPOSITIONS AND METHODS OF TREATING DISORDERS” (Chengdu Anticancer Bioscience, Ltd., priority 2021, published 2024).
Like-named read-outs stand apart in the source and are kept apart here.

Experiments:
Type in all cases: cell-based
RPEMYC^H2B-GFP cells = assay: Phenotypic screening assay (mitotic arrest, polyploidy); conditions: 1 nM to 30 μM; for IC50: read-out: Proliferative arrest (>50%)
Summary of the method: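 RPE cells expressing MYC and H2B-EGFP treated with compound at 1 nM–30 μM; mitotic index scored at 24 h and polyploidy (DNA content) at 48 h by automated imaging, with reads at 24, 48 or 72 h. Hits show transient mitotic arrest followed by polyploid accumulation.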

A549 [1] = assay: MECP in cancer cell line; conditions: Homo sapiens
Summary of the method: (§1)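 Cells grown in DMEM with 5% FBS at 37° C, 5% CO2, then treated at 1 nM to 30 μM. Imaging at 24, 48 or 72 h scored mitotic arrest or DNA-content change; hits show transient mitotic-index rise at 24 h and polyploid accumulation at 48 h; values binned A (≤1.0 μM) to D (>30.0 μM).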

NCI-N87 [2] = assay: MECP in cancer cell line; conditions: Homo sapiens
Summary of the method: as §1

A549 [3] = assay: MTT assay of cellular proliferation; conditions: Homo sapiens, 50% inhibition of cellular proliferation
Summary of the method: (§2)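 Proliferation is scored by MTT conversion, with formazan absorbance at 570 nm proportional to live cell number. Cultures in 5% FBS DMEM at 37 °C are treated across 1 nM-30 μM, and the half-inhibitory concentration is reported as EC50.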

Calu-6 = assay: MTT assay of cellular proliferation; conditions: Homo sapiens; Calu-6, MTT, 50% inhibition of cellular proliferation
Summary of the method: as §2

DU145 = assay: MTT assay of cellular proliferation; conditions: Homo sapiens, DU-145, 50% inhibition of cellular proliferation
Summary of the method: as §2

NCI-H2170 = assay: MTT assay of cellular proliferation; conditions: Homo sapiens, 50% inhibition of cellular proliferation
Summary of the method: as §2

NCI-N87 [4] = assay: MTT assay of cellular proliferation; conditions: Homo sapiens, 50% inhibition of cellular proliferation
Summary of the method: as §2

SW480 [5] = assay: MECP in cancer cell line; conditions: Homo sapiens
Summary of the method: as §1

SW480 [6] = assay: MTT assay of cellular proliferation; conditions: Homo sapiens, 50% inhibition of cellular proliferation
Summary of the method: as §2

[7] = read-out: Min. Effective conc. for Polyploidy (≥5%)

EC50 (A549 [3])	EC50 (Calu-6)	EC50 (DU145)	EC50 (NCI-H2170)	EC50 (SW480 [6])	SMILES	Min. Effective conc. for Polyploidy (≥5%) (RPEMYC^H2B-GFP cells)	Mitotic Arrest (≥5%) (RPEMYC^H2B-GFP cells)	Proliferative arrest (>50%) (RPEMYC^H2B-GFP cells)	Along with Cell Death (RPEMYC^H2B-GFP cells; listed as 33)	minimal effective concentration (RPEMYC^H2B-GFP cells; [7])	minimal effective concentration (RPEMYC^H2B-GFP cells; read-out: Mitotic Arrest (≥5%))	IC50 (RPEMYC^H2B-GFP cells)	minimal effective concentration (A549 [1])	minimal effective concentration (NCI-N87 [2])	EC50 (NCI-N87 [4])	minimal effective concentration (SW480 [5])
> 30000 nM	1 to 1000 nM	1 to 1000 nM	1 to 1000 nM	–	COC(=O)c1cc(Oc2ncnc3cc[nH]c23)cc(C(=O)OC)c1 [Compound 36, dimethyl 5-((5H-pyrrolo[3,2-d]pyrimidin-4-yl)oxy)isophthalate]	–	–	–	–	0.001 to 1 µM	0.001 to 1 µM	1 to 1000 nM	1 to 10 µM	0.001 to 1 µM	1 to 1000 nM	–
> 30000 nM	1 to 1000 nM	1 to 1000 nM	1 to 1000 nM	1000 to 10000 nM	COC(=O)c1cc(OC)cc(Oc2ncnc3cc[nH]c23)c1 [Compound 34, methyl 3-((5H-pyrrolo[3,2-d]pyrimidin-4-yl)oxy)-5-methoxybenzoate]	–	–	–	–	0.001 to 1 µM	0.001 to 1 µM	1 to 1000 nM	1 to 10 µM	0.001 to 1 µM	1 to 1000 nM	0.001 to 1 µM
> 30000 nM	1 to 1000 nM	1 to 1000 nM	1 to 1000 nM	1 to 1000 nM	COC(=O)c1cc(OC)cc(Oc2ncnc3ccsc23)c1 [Compound 37, methyl 3-methoxy-5-(thieno[3,2-d]pyrimidin-4-yloxy)benzoate]	–	–	–	–	0.001 to 1 µM	0.001 to 1 µM	1 to 1000 nM	1 to 10 µM	0.001 to 1 µM	1 to 1000 nM	0.001 to 1 µM

Continued, compound first:

SMILES	EC50 (A549 [3])	EC50 (Calu-6)	EC50 (DU145)	EC50 (NCI-H2170)	EC50 (SW480 [6])	Min. Effective conc. for Polyploidy (≥5%) (RPEMYC^H2B-GFP cells)	Mitotic Arrest (≥5%) (RPEMYC^H2B-GFP cells)	Proliferative arrest (>50%) (RPEMYC^H2B-GFP cells)	Along with Cell Death (RPEMYC^H2B-GFP cells; listed as 33)	minimal effective concentration (RPEMYC^H2B-GFP cells; [7])	minimal effective concentration (RPEMYC^H2B-GFP cells; read-out: Mitotic Arrest (≥5%))	IC50 (RPEMYC^H2B-GFP cells)	minimal effective concentration (A549 [1])	minimal effective concentration (NCI-N87 [2])	EC50 (NCI-N87 [4])	minimal effective concentration (SW480 [5])
COC(=O)c1cc(Oc2ncnc3ccsc23)cc(C(=O)OC)c1 [Compound 39, dimethyl 5-(thieno[3,2-d]pyrimidin-4-yloxy)isophthalate]	> 30000 nM	1 to 1000 nM	1 to 1000 nM	1000 to 10000 nM	–	B (a value greater than 1.00 μM and less than or equal to 10.0 μM)	B (a value greater than 1.00 μM and less than or equal to 10.0 μM)	B (a value greater than 1.00 μM and less than or equal to 10.0 μM)	B (a value greater than 1.00 μM and less than or equal to 10.0 μM)	0.001 to 1 µM	0.001 to 1 µM	1 to 1000 nM	1 to 10 µM	0.001 to 1 µM	1 to 1000 nM	–
COC(=O)c1cc(OC)cc(Oc2ncnc3cc(OC)c(OC)cc23)c1 [Compound 29]	> 30000 nM	1 to 1000 nM	1 to 1000 nM	1 to 1000 nM	1000 to 10000 nM	–	–	–	–	0.001 to 1 µM	0.001 to 1 µM	1 to 1000 nM	1 to 10 µM	0.001 to 1 µM	1 to 1000 nM	1 to 10 µM
COc1cc(OC)cc(Oc2ccnc3ccccc23)c1 [Compound 7, 4-(3,5-dimethoxyphenoxy)quinoline]	–	–	–	–	–	–	–	–	–	0.001 to 1 µM	0.001 to 1 µM	1 to 1000 nM	–	–	–	–
